Reference: US20060069036A1, “Methods of treatment of inflammation using glutathiones” (priority 2004, published 2006)

Key:
GSH levels = settings: oral administration, cited from earlier work
psoriasis lesions = tested on: psoriasis lesions
Source text: As of the filing of this application, a preliminary program of clinical testing has been conducted. […] Patients instructed to apply the product twice daily to the affected areas.

[1] = patients with psoriasis symptoms, topical cream 45 mg/ml GSH in phospholipid carrier, twice daily

Row | SMILES | effect on GSH levels (GSH levels; HIV patients) | safety and tolerability (GSH levels) | adverse side effects (psoriasis lesions; clinical studies to date, topical application) | response of patient lesions to treatment (psoriasis lesions; patients with psoriasis symptoms, topical cream 45 mg/ml GSH in phospholipid carrier, applied twice daily to affected areas) | elasticity and supple feeling of the skin (psoriasis lesions; [1]) | inflammation, irritation, and erythema of the skin (psoriasis lesions; [1]) | time after first application to significant improvement (in some cases clearing) of lesions (psoriasis lesions; [1]) [h]
1 | O=C(O)CCCCC1CCSS1 (stereo not drawn) [alpha-lipoic acid, Alpha-lipoic acid] | raises GSH levels | extremely safe and well tolerated | – | – | – | – | –
2 | N[C@@H](CCC(=O)N[C@@H](CS)C(=O)NCC(=O)O)C(=O)O [reduced glutathione (GSH), N-L-gamma-glutamyl-cysteinyl glycine] | – | – | no adverse side effects | significantly improved | returned | decreased | ≤ 24
